ChEMBL document CHEMBL1142979, “Nonprenylated rotenoids, a new class of potent breast cancer resistance protein inhibitors” (J Med Chem, 2007)

Assays:
Type in all cases: cell-based
BCRP (ABCG2) = target: T1, BCRP (ABCG2) (Homo sapiens, UniProt Q9UNQ0); experiment: Inhibition of BCRP expressed in human HEK293 cells assessed as maximal mitoxantrone accumulation at 20 uM relative control; conditions: HEK293 cells that express BCRP, probe mitoxantrone, read-out: Activity
T1 sequence (Q9UNQ0 whole entry): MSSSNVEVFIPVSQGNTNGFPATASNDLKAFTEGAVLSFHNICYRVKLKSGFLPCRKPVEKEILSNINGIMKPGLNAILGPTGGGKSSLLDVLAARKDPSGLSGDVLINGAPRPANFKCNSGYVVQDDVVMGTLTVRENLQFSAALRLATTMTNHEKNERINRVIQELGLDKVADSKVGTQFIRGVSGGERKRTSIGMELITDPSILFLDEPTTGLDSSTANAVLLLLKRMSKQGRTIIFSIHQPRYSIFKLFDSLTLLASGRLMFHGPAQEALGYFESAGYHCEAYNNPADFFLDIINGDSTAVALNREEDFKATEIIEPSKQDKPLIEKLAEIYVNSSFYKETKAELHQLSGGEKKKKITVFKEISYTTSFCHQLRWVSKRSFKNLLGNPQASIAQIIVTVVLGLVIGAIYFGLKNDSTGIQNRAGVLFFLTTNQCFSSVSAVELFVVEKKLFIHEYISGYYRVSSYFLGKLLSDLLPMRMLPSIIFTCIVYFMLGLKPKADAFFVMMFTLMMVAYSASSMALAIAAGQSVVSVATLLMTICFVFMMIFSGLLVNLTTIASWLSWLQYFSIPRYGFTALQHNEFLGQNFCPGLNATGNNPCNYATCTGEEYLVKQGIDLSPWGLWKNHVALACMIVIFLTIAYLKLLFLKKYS

[1] = target: T2, Broad substrate specificity ATP-binding cassette transporter ABCG2 (Homo sapiens, UniProt Q9UNQ0); experiment: Inhibition of BCRP expressed in human HEK293 cells assessed as maximal mitoxantrone accumulation at 10 uM relative control; set-up: scale not given: the % may be the effect or the level left; conditions: hek293, 10 µM
T2 sequence (Q9UNQ0 whole entry): T1 sequence (Q9UNQ0 whole entry)

[2] = target: T2, Broad substrate specificity ATP-binding cassette transporter ABCG2; experiment: Inhibition of BCRP expressed in human HEK293 cells assessed as maximal mitoxantrone accumulation at 5 uM relative control; set-up: scale not given: the % may be the effect or the level left; conditions: hek293, 5 µM
[3] = target: T2, Broad substrate specificity ATP-binding cassette transporter ABCG2; experiment: Inhibition of BCRP expressed in human HEK293 cells assessed as maximal mitoxantrone accumulation

COc1cc2oc3c(c(=O)c2c(O)c1C)-c1cccc(O)c1OC3O (stereo not drawn) [9-O-METHYL-4-HYDROXYBOERAVINONE B]
Emax at 20 µM (BCRP (ABCG2)): 15%

COC1Oc2ccccc2-c2c1oc1cc(O)c(C)c(O)c1c2=O (stereo not drawn) [BOERAVINONE A]
Activity [1]: 27%

Cc1c(O)cc2oc3c(c(=O)c2c1O)-c1ccccc1OC3O (stereo not drawn) [BOERAVINONE B]
Activity [1]: 55%

COc1cc2c(c(O)c1C)C(=O)[C@]1(O)c3cccc(O)c3OC[C@H]1O2 [BOERAVINONE C]
Activity [1]: 31%

Cc1c(O)cc2oc3c(c(=O)c2c1O)-c1ccc(O)cc1OC3O (stereo not drawn) [BOERAVINONE E]
Activity [1]: 56%

COc1cc(O)c2c(=O)c3c(oc2c1)C(OC)Oc1c(O)cccc1-3 (stereo not drawn) [BOERAVINONE G]
Activity [2]: 92%
IC50 [3]: 0.7 µM

COc1cc2oc3c(c(=O)c2c(O)c1C)-c1cccc(O)c1OC3OC (stereo not drawn) [BOERAVINONE H]
Activity [2]: 68%
IC50 [3]: 2.5 µM

COc1c(C)c(O)c2c(=O)c3c(oc2c1O)C(O)Oc1ccccc1-3 (stereo not drawn) [BOERAVINONE I]
Emax at 20 µM (BCRP (ABCG2)): 12%

Cc1c(O)cc2oc3oc4cc(O)ccc4c3c(=O)c2c1O [BOERAVINONE J]
Emax at 20 µM (BCRP (ABCG2)): 15%

O=c1c2c(oc3cc(O)cc(O)c13)C(O)Oc1ccccc1-2 (stereo not drawn) [COCCINEONE B]
Activity [1]: 29%

COc1cc2c(c(O)c1OC)C(=O)[C@]1(O)c3ccccc3OC[C@H]1O2 [COCCINEONE E]
Activity [1]: 15%
